Experimental data as given in publication PMC11568336, “Biochemical properties of immobilized horseradish peroxidase on ceramic and its application in removal of azo dye” (Scientific Reports, 2024).

System: T1, Horseradish peroxidase (HRP), soluble HRP
T1 construct: gene PRXC1A; free (soluble) enzyme
Assay: absorbance at […] nm, Lineweaver-Burk plot
Type: biochemical, Armoracia rusticana
Conditions: soluble (free) enzyme; co-substrate H2O2 (8 mM in standard assay); 20 mM sodium acetate pH 6.0

Km: 35.5 mM
Structure (SMILES): COc1ccccc1O [guaiacol]
